Data reported in patent US9101638B2, “Boronic acid derivatives and therapeutic uses thereof” (Rempex Pharmaceuticals, Inc., priority 2013, dated 2015).
pIC50, pKi: −log10 of the molar value.

Experiments:
[1] = target: T1, Dipeptidyl peptidase 9 (DPP9) (Homo sapiens, UniProt Q86TI2); assay: Serine protease inhibition: DPP9; assay type: biochemical, mammalian; conditions: Table 8B; read-out: IC50 DPP9
T1 construct: purchased BPS Bioscience 80090
In short: (§1)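 Each diluted enzyme preincubated 10 min at 37° C with compound at various concentrations in its own buffer, then its substrate added and absorbance or fluorescence followed 30 min. Reaction rates expressed relative to untreated control; AEBSF and leupeptin as positive controls.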

ec302 (TEM-10) = assay: Potentiation of aztreonam, strain ec302; assay type: cell-based
ECL1002 = assay: Potentiation of aztreonam, strain ECL1002; assay type: cell-based; conditions: minimum BLI concentration inhibiting growth with 4 μg/mL aztreonam
HtrA2 = target: T2, HtrA2 (Homo sapiens, UniProt O43464); assay: Serine protease inhibition: HtrA2; assay type: biochemical, mammalian; conditions: Table 8B; read-out: IC50 HtrA2
T2 sequence (O43464 134-458): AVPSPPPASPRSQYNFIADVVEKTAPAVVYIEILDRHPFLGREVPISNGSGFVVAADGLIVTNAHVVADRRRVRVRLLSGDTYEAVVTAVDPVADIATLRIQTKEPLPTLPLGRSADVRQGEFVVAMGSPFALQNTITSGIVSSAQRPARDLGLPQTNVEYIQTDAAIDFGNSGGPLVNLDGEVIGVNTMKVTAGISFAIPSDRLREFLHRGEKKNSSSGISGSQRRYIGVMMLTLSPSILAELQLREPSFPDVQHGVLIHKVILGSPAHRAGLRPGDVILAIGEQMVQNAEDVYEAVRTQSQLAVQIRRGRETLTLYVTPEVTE
Protocol: (§2) The effect of selected BLIs on the enzymatic activity of some common mammalian serine proteases was evaluated.
(§3) 50 μl of the diluted enzyme was mixed with 50 μl of inhibitor at various concentrations and 50 μl of corresponding buffer (Table 7). Reaction mixtures were incubated for 10 min at 37° C. Subsequently, 50 μl of corresponding substrate (Table 7) was added and absorbance or fluorescence was monitored for 30 min on SpectraMax M2 plate reader (Molecular Devices). 4-(2-Aminoethyl)benzenesulfonyl fluoride hydrochloride (AEBSF) and leupeptin were used as positive controls. Rates of reaction were calculated and presented relative to “no treatment” control.

P99 = P99 (Enterobacter cloacae, UniProt P05364); assay: Inhibition of nitrocefin cleavage by purified P99; assay type: biochemical; conditions: nitrocefin reporter substrate, purified enzyme; read-out: Ki (P99, NCF)
In short: (§4)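 Purified enzyme was preincubated with a range of inhibitor concentrations in reaction buffer for 10 min at room temperature. Nitrocefin was then added and its cleavage followed at 490 nm every 10 sec for 10 min.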

Trypsin = target: T3, Trypsin (Bos taurus, UniProt P00760); assay: Serine protease inhibition: trypsin; assay type: biochemical, mammalian; conditions: Table 8A, class symbols; read-out: IC50 Trypsin
T3 construct: purchased Calbiochem 6502
T3 sequence (P00760 24-246): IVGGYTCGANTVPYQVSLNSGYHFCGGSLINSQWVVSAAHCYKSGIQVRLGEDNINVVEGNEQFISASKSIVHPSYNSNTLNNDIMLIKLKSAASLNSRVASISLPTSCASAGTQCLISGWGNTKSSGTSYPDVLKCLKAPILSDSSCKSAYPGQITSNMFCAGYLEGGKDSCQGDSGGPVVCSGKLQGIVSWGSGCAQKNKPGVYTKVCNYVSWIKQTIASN
Protocol: as §2, §3

CathepsinG = target: T4, CathepsinG (Homo sapiens, UniProt P08311); assay: Serine protease inhibition: cathepsin G; assay type: biochemical, mammalian; conditions: Table 8B
T4 construct: purchased EMD Millipore 219373
T4 sequence (P08311 21-244): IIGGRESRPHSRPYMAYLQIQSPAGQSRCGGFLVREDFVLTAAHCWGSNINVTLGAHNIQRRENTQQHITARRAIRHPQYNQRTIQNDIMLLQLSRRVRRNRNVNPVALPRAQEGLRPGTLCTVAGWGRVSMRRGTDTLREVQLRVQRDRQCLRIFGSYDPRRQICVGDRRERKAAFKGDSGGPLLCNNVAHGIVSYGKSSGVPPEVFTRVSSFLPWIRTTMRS
In short: as §1

Thrombin = target: T5, Thrombin (Homo sapiens, UniProt P00734); assay: Serine protease inhibition: thrombin; assay type: biochemical, mammalian; conditions: Table 8A, class symbols; read-out: IC50 Thrombin
T5 construct: Thrombin; MPBio; 19491880; purchased MPBio 19491880
In short: as §1

Elastase = target: T6, Elastase (Sus scrofa, UniProt P00772); assay: Serine protease inhibition: elastase; assay type: biochemical, mammalian; conditions: Table 8A, class symbols; read-out: IC50 Elastase
T6 construct: purchased Calbiochem 324682
Protocol: as §2, §3

CTX-M-14 = CTX-M-14 (Escherichia coli, UniProt Q9L5C7); assay: Inhibition of nitrocefin cleavage by purified CTX-M-14; assay type: biochemical; conditions: nitrocefin reporter substrate, purified enzyme; read-out: Ki (CTX-M-14, NCF)
In short: as §4

CMY-2 = CMY-2 (Klebsiella pneumoniae, UniProt Q48434); assay: Inhibition of nitrocefin cleavage by purified CMY-2; assay type: biochemical; conditions: nitrocefin reporter substrate, purified enzyme; read-out: Ki (CMY-2, NCF)
In short: as §4

OXA-48 = OXA-48 (Klebsiella pneumoniae, UniProt Q6XEC0); assay: Inhibition of nitrocefin cleavage by purified OXA-48; assay type: biochemical; conditions: nitrocefin reporter substrate, purified enzyme; read-out: Ki (OXA-48, NCF)
In short: as §4

PAM1154/KPC-2 = assay: Biapenem potentiation in PAM1154/KPC-2 (MexAB-OprM lacking); assay type: cell-based, Pseudomonas aeruginosa
Protocol: Efflux of BLIs from Pseudomonas aeruginosa by the MexAB-OprM efflux pump was also evaluated. […] Due to expression of KPC-2 both strains became resistant to biapenem. […] Potency of BLIs to potentiate biapenem in these strains was determined. […] The ratio of MPC64 values for each BLI in PAM1032/KPC-2 (efflux proficient) and PAM1154/KPC-2 (efflux deficient) was determined to generate the Efflux Index (EI).

EC1010 (CMY-6) = assay: Potentiation of aztreonam, strain EC1010; assay type: cell-based

T1 sequence (Q86TI2 whole entry): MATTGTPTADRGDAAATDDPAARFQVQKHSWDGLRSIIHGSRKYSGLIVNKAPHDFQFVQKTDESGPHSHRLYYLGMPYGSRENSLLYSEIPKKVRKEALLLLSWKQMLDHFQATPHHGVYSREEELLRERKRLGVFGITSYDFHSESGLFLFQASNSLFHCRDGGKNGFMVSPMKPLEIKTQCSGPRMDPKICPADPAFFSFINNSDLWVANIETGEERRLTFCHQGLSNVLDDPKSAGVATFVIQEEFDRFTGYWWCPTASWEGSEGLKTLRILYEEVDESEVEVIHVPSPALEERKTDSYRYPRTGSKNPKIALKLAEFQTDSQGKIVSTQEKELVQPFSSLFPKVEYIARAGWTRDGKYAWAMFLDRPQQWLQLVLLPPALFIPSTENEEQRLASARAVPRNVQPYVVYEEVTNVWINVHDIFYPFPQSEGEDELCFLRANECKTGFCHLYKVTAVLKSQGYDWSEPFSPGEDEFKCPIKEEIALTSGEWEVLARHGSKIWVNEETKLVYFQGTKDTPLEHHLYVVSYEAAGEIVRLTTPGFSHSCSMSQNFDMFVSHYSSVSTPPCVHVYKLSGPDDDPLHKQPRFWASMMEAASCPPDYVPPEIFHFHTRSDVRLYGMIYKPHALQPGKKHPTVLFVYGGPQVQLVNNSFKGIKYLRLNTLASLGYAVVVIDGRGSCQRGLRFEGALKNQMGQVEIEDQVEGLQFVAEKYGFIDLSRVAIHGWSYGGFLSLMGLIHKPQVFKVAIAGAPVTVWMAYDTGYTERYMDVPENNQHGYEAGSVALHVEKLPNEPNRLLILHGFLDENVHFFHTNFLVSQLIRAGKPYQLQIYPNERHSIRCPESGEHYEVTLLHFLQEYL
T6 sequence (P00772 27-266): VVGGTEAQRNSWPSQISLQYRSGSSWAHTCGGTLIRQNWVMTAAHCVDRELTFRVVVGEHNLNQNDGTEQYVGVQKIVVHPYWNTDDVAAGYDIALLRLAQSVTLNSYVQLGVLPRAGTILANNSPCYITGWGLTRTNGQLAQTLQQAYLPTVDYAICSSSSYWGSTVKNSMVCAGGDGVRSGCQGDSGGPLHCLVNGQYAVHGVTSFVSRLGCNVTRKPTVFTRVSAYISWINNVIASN
CTX-M-14, sequence (Q9L5C7 entry or part of it): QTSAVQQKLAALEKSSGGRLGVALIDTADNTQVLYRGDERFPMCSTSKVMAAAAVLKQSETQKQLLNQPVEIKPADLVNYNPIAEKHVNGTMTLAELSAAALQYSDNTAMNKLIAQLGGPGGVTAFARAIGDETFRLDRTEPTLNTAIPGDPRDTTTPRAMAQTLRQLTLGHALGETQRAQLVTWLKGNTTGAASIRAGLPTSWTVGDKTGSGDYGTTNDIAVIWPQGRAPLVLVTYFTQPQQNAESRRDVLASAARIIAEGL
CMY-2, sequence (Q48434 21-381, species assumed): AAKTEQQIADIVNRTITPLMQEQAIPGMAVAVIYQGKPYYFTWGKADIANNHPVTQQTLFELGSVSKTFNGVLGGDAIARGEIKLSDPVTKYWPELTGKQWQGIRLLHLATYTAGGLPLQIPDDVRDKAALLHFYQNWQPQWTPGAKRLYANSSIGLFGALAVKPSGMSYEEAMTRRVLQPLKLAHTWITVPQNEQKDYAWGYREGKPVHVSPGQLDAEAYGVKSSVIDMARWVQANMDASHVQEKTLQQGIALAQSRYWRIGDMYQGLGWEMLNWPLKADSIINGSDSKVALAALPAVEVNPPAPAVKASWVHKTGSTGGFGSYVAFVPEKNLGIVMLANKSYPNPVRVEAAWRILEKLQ
OXA-48, sequence (Q6XEC0 23-265 limits assumed): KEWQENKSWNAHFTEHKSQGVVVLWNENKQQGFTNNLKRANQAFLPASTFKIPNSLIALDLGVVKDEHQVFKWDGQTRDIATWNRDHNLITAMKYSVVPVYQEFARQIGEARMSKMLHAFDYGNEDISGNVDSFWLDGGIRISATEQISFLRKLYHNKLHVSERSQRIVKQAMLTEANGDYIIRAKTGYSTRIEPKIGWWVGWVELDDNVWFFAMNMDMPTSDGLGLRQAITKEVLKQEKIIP
P99, sequence (P05364 21-381): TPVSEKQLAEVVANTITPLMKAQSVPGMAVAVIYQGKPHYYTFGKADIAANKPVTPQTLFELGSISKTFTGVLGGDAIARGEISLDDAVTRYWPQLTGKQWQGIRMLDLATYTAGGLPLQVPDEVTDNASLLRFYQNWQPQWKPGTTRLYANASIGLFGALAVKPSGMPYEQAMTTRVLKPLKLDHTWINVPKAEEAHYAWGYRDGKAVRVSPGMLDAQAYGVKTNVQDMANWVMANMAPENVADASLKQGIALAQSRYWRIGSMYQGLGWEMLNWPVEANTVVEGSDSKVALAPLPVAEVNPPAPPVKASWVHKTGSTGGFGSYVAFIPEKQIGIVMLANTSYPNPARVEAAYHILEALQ

SMILES: O=CN[C@H]1Cc2cccc(C(=O)O)c2OB1O [Compound 4, (R)-3-formamido-2-hydroxy-3,4-dihydro-2H-benzo[e][1,2]oxaborinine-8-carboxylic acid]
- pIC50 [1]: < 3.30
- AZT MPC4 TEM-10 ec302 (ec302 (TEM-10)): Y (key: X = MIC of less than 1 μg/mL; Y = MIC of 1 μg/mL to 10 μg/mL; Z = MIC of greater than 10 μg/mL)
- AZT MPC4 ECL1002 (ECL1002): Y (Y = MIC of 1 μg/mL to 10 μg/mL)
- pIC50 (HtrA2): < 3.30
- pKi (P99): 8.00 to 9.00
- pIC50 (Trypsin): < 3.10
- pIC50 (CathepsinG): 3.30 to 4.82
- pIC50 (Thrombin): < 3.10
- pIC50 (Elastase): < 3.10
- pKi (CTX-M-14): 8.00 to 9.00
- pKi (CMY-2): 8.00 to 9.00
- pKi (OXA-48): 8.00 to 9.00
- PAM1154/KPC-2 Biapenem MPC64 (PAM1154/KPC-2): X (key: X = Less than 10; Y = 10 to 40; Z Greater than 40)
- AZT MPC4 CMY-6 EC1010 (EC1010 (CMY-6)): X (key: X = MIC of less than 1 μg/mL; Y = MIC of 1 μg/mL to 10 μg/mL; Z = MIC of greater than 10 μg/mL)
